Among the data in ChEMBL document CHEMBL3991601, “The target landscape of clinical kinase drugs” (Science, 2017) are Kd values, retold here.

Each structure is given as a SMILES string. Where a name gives a salt, the structure may show the parent alone. The source made the active and inactive calls. Cut-off read from the data, not from the text of the source, for most assays here: actives have a measured Kd and inactives only a lower limit. A value given as a limit tells only on which side of the number the result lay.

The target in test [1] is Elongation factor Tu, mitochondrial (Homo sapiens, UniProt P49411).
The next test deals with T1, Ephrin type-B receptor 2 (Homo sapiens, UniProt P29323).
T1 sequence (P29323 whole entry): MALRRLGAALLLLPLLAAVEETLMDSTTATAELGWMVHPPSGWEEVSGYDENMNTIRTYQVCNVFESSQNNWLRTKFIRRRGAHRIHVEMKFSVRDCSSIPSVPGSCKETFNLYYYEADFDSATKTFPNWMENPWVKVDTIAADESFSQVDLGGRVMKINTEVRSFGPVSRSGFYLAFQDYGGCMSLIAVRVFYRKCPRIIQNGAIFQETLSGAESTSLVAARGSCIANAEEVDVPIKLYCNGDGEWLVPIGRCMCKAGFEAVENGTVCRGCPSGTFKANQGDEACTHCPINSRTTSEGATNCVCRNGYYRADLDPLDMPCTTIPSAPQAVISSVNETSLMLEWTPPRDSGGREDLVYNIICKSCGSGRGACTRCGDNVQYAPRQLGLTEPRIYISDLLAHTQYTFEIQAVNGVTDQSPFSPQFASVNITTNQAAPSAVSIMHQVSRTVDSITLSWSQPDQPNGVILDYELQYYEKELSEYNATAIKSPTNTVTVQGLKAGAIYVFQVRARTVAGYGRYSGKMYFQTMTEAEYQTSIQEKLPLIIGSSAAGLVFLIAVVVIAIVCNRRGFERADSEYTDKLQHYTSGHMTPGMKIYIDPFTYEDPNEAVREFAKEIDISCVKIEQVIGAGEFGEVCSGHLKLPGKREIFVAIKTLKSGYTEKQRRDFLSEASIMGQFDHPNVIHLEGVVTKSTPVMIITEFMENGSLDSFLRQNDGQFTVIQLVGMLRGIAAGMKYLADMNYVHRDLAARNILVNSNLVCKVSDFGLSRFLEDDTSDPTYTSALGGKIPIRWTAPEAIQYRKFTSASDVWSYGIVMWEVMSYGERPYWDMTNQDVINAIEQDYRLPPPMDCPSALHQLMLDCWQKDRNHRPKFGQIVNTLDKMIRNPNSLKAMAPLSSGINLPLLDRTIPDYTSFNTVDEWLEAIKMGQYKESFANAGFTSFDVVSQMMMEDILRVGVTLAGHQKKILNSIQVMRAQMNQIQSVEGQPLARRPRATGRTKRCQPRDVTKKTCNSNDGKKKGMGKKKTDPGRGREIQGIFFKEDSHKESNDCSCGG

Test [2] deals with Eukaryotic translation initiation factor 2-alpha kinase 1 (Homo sapiens, UniProt Q9BQI3).
Sequence of Eukaryotic translation initiation factor 2-alpha kinase 1 (Q9BQI3 whole entry): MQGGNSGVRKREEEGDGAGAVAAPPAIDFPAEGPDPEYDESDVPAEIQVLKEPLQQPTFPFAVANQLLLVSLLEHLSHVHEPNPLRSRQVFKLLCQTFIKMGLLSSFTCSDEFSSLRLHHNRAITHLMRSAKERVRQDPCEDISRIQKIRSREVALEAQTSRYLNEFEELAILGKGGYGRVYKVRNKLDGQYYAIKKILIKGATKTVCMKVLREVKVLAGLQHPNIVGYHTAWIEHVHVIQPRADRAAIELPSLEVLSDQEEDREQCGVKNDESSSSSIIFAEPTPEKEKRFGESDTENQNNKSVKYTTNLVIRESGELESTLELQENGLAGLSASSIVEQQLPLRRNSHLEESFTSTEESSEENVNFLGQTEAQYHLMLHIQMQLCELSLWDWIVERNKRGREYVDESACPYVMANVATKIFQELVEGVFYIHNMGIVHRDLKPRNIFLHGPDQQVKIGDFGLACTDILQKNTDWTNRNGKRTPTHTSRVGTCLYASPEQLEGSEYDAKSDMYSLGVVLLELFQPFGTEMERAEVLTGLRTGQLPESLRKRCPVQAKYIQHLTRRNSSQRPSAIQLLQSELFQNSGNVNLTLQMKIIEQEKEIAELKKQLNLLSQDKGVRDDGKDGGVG
Test [3] has as its target T2, Calcium/calmodulin-dependent protein kinase type IV (Homo sapiens, UniProt Q16566).
T2 sequence (Q16566 whole entry): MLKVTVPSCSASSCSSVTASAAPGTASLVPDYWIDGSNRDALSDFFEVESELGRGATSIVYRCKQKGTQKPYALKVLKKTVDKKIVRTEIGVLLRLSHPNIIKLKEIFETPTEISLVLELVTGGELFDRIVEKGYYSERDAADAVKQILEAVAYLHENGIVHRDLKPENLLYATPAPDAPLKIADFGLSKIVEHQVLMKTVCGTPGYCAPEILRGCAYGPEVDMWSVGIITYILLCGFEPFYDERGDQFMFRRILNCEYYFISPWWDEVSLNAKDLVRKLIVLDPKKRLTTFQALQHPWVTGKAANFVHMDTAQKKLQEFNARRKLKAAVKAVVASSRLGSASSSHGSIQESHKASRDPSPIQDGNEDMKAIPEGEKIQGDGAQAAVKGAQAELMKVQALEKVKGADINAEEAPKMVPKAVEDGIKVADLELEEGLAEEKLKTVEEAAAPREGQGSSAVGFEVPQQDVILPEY

For test [4], the target named is PAS domain-containing serine/threonine-protein kinase (Homo sapiens, UniProt Q96RG2).
Sequence of PAS domain-containing serine/threonine-protein kinase (Q96RG2 whole entry, the tested form may be a part): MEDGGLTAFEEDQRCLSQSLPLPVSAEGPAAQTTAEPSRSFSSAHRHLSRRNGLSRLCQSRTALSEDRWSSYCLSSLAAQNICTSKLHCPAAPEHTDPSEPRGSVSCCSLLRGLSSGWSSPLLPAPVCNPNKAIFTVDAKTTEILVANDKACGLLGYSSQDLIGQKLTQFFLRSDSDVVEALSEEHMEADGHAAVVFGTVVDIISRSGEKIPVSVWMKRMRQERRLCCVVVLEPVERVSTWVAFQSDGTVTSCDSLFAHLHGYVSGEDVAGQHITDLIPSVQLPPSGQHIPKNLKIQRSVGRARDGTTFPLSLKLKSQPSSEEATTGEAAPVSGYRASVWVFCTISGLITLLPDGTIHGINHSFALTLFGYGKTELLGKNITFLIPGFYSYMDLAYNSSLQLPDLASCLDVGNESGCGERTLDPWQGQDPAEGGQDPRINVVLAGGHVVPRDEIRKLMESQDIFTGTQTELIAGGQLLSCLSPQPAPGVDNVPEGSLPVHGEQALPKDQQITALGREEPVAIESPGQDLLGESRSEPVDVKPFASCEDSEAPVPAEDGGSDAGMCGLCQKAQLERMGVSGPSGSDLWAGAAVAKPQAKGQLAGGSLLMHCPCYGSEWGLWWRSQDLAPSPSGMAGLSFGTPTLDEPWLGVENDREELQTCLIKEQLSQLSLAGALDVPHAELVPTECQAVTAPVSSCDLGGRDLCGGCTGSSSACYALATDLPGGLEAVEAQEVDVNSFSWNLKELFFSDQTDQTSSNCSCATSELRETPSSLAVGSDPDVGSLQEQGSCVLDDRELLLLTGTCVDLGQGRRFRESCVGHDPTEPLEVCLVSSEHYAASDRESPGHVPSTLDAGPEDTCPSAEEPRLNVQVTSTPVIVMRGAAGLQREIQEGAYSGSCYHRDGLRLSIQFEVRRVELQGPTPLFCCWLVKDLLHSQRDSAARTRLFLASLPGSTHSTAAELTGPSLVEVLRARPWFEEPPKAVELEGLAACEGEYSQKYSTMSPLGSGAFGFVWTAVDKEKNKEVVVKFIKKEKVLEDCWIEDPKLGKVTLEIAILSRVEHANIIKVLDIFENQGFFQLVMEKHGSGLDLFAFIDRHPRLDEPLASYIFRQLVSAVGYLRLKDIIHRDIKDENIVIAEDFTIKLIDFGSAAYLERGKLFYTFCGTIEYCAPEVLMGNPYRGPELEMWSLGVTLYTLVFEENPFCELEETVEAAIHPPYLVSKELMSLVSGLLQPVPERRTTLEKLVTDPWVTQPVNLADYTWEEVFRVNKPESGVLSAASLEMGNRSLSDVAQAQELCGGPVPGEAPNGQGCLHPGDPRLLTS
Test [5] has as its target T3, Signal recognition particle receptor subunit alpha (Homo sapiens, UniProt P08240).
T3 sequence (P08240 whole entry): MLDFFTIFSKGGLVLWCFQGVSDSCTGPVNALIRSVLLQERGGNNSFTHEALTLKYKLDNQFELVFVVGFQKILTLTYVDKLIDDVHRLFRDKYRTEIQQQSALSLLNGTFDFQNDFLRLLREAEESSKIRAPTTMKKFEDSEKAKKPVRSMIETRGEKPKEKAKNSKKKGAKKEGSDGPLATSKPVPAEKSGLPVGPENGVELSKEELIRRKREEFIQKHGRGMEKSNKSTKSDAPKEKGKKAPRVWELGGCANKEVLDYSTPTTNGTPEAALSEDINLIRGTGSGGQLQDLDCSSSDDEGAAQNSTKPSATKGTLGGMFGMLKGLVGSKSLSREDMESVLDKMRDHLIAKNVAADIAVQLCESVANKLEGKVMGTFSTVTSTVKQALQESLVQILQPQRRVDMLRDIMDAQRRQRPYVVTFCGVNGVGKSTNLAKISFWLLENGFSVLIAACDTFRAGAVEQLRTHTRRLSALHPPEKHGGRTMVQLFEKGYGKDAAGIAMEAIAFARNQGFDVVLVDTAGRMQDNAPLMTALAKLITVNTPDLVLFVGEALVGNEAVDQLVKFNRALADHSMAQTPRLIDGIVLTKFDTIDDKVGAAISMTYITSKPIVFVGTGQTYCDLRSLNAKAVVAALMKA

Test [6] deals with Hepatocyte growth factor receptor (Homo sapiens, UniProt P08581).
Sequence of Hepatocyte growth factor receptor (P08581 whole entry): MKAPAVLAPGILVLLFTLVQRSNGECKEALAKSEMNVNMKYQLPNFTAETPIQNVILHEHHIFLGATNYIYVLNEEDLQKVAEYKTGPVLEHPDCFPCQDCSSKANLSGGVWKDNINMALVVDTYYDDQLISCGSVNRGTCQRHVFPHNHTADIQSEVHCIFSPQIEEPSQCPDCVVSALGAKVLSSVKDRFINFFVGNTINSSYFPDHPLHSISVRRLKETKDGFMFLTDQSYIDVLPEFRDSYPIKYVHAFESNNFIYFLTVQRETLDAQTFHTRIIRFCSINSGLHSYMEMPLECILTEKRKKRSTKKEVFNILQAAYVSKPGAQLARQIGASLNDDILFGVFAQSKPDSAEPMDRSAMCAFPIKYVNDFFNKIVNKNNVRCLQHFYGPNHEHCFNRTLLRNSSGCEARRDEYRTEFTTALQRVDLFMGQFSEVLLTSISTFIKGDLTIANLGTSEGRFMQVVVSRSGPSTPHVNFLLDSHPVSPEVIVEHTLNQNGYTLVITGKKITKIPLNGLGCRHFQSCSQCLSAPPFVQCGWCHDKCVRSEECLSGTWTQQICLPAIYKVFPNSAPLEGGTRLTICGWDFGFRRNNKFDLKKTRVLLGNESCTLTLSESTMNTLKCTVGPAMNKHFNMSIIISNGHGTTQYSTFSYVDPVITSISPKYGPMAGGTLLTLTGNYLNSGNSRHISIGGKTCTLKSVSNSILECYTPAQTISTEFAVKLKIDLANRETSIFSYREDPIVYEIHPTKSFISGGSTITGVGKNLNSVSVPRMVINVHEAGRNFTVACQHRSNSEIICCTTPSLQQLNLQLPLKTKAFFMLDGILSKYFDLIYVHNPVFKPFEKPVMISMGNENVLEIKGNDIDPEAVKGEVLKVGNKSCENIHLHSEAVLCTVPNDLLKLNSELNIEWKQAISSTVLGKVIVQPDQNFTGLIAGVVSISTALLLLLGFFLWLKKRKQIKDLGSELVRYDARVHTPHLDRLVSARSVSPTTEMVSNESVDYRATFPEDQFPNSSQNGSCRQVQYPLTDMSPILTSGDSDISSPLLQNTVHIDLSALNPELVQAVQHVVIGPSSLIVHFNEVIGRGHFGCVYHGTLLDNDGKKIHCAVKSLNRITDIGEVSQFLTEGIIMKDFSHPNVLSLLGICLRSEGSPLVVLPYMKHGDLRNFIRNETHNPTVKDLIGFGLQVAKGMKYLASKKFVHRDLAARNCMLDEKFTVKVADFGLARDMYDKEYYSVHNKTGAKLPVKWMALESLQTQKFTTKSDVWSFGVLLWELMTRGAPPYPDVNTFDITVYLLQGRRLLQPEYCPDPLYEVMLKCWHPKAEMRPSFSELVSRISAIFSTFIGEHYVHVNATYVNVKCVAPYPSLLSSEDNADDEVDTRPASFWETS
For test [7], the target named is Platelet-derived growth factor receptor beta (Homo sapiens, UniProt P09619).
Sequence of Platelet-derived growth factor receptor beta (P09619 whole entry): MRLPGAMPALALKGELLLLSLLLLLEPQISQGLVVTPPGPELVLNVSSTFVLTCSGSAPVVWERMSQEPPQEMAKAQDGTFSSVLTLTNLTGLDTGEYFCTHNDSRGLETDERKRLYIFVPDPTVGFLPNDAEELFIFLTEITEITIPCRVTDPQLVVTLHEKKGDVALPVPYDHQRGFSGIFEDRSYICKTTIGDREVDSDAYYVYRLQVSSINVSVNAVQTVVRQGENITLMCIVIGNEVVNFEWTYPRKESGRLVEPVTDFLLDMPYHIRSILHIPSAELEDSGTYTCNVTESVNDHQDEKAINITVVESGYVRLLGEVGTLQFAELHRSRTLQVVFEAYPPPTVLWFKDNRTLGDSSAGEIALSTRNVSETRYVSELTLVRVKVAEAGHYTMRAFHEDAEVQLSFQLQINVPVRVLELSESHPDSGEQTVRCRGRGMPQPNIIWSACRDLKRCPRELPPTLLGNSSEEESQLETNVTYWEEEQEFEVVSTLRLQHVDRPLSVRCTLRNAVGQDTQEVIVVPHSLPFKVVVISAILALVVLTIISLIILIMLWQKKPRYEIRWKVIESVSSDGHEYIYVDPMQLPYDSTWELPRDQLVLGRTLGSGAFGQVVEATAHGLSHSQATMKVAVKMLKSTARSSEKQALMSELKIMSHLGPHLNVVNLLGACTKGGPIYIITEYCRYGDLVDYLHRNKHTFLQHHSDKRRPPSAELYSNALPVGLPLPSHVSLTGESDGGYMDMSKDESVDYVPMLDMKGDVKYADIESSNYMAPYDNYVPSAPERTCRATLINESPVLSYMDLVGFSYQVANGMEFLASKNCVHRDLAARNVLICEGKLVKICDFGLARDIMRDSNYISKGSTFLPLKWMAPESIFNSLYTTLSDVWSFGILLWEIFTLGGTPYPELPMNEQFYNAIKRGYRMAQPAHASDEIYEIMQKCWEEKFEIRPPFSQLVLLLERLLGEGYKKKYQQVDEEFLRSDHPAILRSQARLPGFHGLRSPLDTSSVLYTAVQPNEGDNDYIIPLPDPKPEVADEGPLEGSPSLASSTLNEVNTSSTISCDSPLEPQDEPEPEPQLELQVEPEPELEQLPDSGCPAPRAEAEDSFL
The target in another test is T4, Scaffold protein ILK (Homo sapiens, UniProt Q13418).
T4 sequence (Q13418 whole entry): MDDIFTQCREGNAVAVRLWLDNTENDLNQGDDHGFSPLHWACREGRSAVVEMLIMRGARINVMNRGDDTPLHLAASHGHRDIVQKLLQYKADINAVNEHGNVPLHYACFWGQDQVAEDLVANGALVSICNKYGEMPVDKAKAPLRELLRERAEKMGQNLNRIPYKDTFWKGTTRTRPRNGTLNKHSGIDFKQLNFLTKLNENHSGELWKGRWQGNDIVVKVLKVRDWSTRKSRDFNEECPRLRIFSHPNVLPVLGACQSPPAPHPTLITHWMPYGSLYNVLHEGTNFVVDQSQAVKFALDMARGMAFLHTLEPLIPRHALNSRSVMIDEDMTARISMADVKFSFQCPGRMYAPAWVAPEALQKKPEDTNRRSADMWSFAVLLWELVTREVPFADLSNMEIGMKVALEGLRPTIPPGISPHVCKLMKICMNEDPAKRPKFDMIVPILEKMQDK
Note: in the data inactive means no Kd found up to 30 µM.

Usually Kd stands for the free concentration of one partner at which half of the binding sites on the other are occupied at equilibrium, for simple one-to-one binding. As to `CCS(=O)(=O)N1CCN(c2ccc(Nc3ncc(C(N)=O)c(NC4CC4)n3)cc2)CC1` [Cerdulatinib Hydrochloride], the Kd was > 30 µM (inactive) in test [1]; > 30 µM (inactive) at Ephrin type-B receptor 2; 3.72 µM in [2]; > 30 µM (inactive) in [3]; > 30 µM (inactive) in test [4]; > 30 µM (inactive) in test [5]. The Kd in [6] was > 30 µM (inactive); in test [7], 0.203 µM (active); on Scaffold protein ILK, > 30 µM (inactive).

For the compound `Cc1cccc(-c2nn3c(c2-c2ccnc4ccc(C(N)=O)cc24)CCC3)n1` [GALUNISERTIB], the Kd (in test [1]; on Ephrin type-B receptor 2; in test [2]; in [3]; in [4]; in [5]) was > 30 µM (inactive) in each case. The Kd (in test [6]; in [7]; on Scaffold protein ILK) was > 30 µM (inactive) each time.

`COc1ccc(S(=O)(=O)N(C(C)=O)c2ccccc2/C=C/c2cc[n+]([O-])cc2)cc1` [HMN-214]: the Kd (in [1]; on Ephrin type-B receptor 2; in [2]; in test [3]; in [4]; in test [5]) was > 30 µM (inactive) each time. Moreover, the figures for the Kd (in [6]; in [7]; on Scaffold protein ILK) were 1.39 µM, > 30 µM (inactive) and > 30 µM (inactive), respectively.

For `NC1(c2ccc(-c3nc4ccn5c(=O)[nH]nc5c4cc3-c3ccccc3)cc2)CCC1` [MK-2206], the Kd (in test [1]; on Ephrin type-B receptor 2; in [2]; in test [3]; in test [4]; in test [5]) was > 30 µM (inactive) in each case. For the same compound, the Kd (in test [6]; in [7]; at Scaffold protein ILK) was > 30 µM (inactive) in each case.

As for `FC(F)(F)c1ccc(/C=C/c2nc(COc3ccc(CCCCn4ccnn4)cc3)co2)cc1` [MUBRITINIB], the Kd (in test [1]; at Ephrin type-B receptor 2; in test [2]; in [3]; in test [4]; in test [5]) was > 30 µM (inactive) throughout. Besides, the Kd (in [6]; in [7]; at Scaffold protein ILK) was > 30 µM (inactive) each time.

As to `Cc1cnc(NC(=O)Nc2cc(Br)c(C)cc2OC[C@@H]2CNCCO2)cn1` [RABUSERTIB], the Kd (in [1]; on Ephrin type-B receptor 2; in test [2]; in test [3]; in test [4]; in [5]) was > 30 µM (inactive) each time. The Kd (in [6]; in test [7]; on Scaffold protein ILK) was > 30 µM (inactive) throughout.

On to `O=c1[nH]ccc2cc(OC3CCNCC3)ccc12` [SAR-407899 FREE BASE], for which the Kd (in [1]; on Ephrin type-B receptor 2; in test [2]; in [3]; in [4]; in test [5]) was > 30 µM (inactive) each time. In addition, the Kd (in test [6]; in test [7]; at Scaffold protein ILK) was > 30 µM (inactive) throughout.

Regarding `CO[C@H]1C[C@@H]2CC[C@@H](C)[C@@](O)(O2)C(=O)C(=O)N2CCCC[C@H]2C(=O)O[C@H]([C@H](C)C[C@@H]2CC[C@@H](O)[C@H](OC)C2)CC(=O)[C@H](C)/C=C(\C)[C@@H](O)[C@@H](OC)C(=O)[C@H](C)C[C@H](C)/C=C/C=C/C=C/1C` [SIROLIMUS], the Kd (in [1]; on Ephrin type-B receptor 2; in [2]; in [3]; in test [4]; in test [5]) was > 30 µM (inactive) throughout. The Kd (in test [6]; in test [7]; at Scaffold protein ILK) was > 30 µM (inactive) each time.

Take `CCS(=O)(=O)c1cccc(-c2cc(C(=O)NC3CCN(C)CC3)c(C)c3[nH]c4ncc(C)cc4c23)c1` [TAK-901]: the Kd in test [1] was > 30 µM (inactive); on Ephrin type-B receptor 2, 0.669 µM (active); in [2], > 30 µM (inactive); in [3], > 30 µM (inactive); in test [4], > 30 µM (inactive); in test [5] it was > 30 µM (inactive). For the same compound, the Kd in [6] was > 30 µM (inactive); in [7], 4.59 µM (active); at Scaffold protein ILK, > 30 µM (inactive).

For the compound `CO[C@H]1C[C@@H]2CC[C@@H](C)[C@@](O)(O2)C(=O)C(=O)N2CCCC[C@H]2C(=O)O[C@H]([C@H](C)C[C@@H]2CC[C@@H](OC(=O)C(C)(CO)CO)[C@H](OC)C2)CC(=O)[C@H](C)/C=C(\C)[C@@H](O)[C@@H](OC)C(=O)[C@H](C)C[C@H](C)/C=C/C=C/C=C/1C` [TEMSIROLIMUS], the Kd (in [1]; at Ephrin type-B receptor 2; in test [2]; in [3]; in test [4]; in test [5]) was > 30 µM (inactive) in each case. The Kd (in test [6]; in test [7]; at Scaffold protein ILK) was > 30 µM (inactive) each time.
